EC50 data for nine molecules are collected here from ChEMBL document CHEMBL1148386, “(2S,1'S,2'R,3'R)-2-(2'-Carboxy-3'-hydroxymethylcyclopropyl) glycine is a highly potent group 2 and 3 metabotropic glutamate receptor agonist with oral activity” (J Med Chem, 2004).

In test [1] the target is T1, Metabotropic glutamate receptor 8 (Rattus norvegicus, UniProt P70579). Description: Metabotropic glutamate receptor 8 agonist activity against forskolin stimulated c-AMP formation in rat non neuronal cells. In kind it is functional, cell-based.
The target of test [2] is T2, Metabotropic glutamate receptor 7 (Rattus norvegicus, UniProt P35400). In words: Metabotropic glutamate receptor 7 agonist activity to influence forskolin stimulated c-AMP formation in rat non neuronal cells. It counts as functional, cell-based.
T2 sequence (P35400 whole entry): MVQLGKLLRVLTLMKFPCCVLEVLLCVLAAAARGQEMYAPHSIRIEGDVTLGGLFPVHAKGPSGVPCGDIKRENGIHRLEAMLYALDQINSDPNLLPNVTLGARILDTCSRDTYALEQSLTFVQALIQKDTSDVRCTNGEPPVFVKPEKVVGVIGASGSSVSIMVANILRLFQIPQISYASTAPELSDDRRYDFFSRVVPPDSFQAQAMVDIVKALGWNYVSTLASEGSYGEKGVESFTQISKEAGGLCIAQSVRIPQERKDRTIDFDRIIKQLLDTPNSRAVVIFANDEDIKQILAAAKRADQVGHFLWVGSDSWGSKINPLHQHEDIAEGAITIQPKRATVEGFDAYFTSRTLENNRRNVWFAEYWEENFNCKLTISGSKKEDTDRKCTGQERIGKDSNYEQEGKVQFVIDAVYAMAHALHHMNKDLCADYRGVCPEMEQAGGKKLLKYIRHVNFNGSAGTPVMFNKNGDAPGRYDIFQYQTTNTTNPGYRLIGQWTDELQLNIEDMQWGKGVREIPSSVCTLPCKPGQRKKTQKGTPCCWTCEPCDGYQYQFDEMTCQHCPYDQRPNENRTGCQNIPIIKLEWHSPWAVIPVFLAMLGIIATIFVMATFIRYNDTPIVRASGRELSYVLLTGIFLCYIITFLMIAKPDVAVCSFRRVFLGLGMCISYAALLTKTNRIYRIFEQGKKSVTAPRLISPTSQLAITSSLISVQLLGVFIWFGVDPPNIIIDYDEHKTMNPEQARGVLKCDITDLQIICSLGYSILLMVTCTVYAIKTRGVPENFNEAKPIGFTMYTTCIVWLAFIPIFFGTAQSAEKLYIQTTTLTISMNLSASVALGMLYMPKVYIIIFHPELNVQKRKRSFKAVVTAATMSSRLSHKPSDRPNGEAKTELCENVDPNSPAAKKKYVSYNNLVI
Test [3] concerns the target Metabotropic glutamate receptor 2 (Rattus norvegicus, UniProt P31421). In words: Metabotropic glutamate receptor 2 agonist activity against forskolin stimulated c-AMP formation in rat non neuronal cells. It counts as functional, cell-based.
Test [4] deals with T3, Metabotropic glutamate receptor 4 (Rattus norvegicus, UniProt P31423). Description: Metabotropic glutamate receptor 4 agonist activity to influence forskolin stimulated c-AMP formation in rat non neuronal cells. It counts as functional, cell-based.
Test [5] deals with Metabotropic glutamate receptor 1 (Rattus norvegicus, UniProt P23385). Description: Metabotropic glutamate receptor 1 agonist activity as basal [3H]- IP formation in rat. In kind it is functional.
Chain of Metabotropic glutamate receptor 1 (P23385 whole entry): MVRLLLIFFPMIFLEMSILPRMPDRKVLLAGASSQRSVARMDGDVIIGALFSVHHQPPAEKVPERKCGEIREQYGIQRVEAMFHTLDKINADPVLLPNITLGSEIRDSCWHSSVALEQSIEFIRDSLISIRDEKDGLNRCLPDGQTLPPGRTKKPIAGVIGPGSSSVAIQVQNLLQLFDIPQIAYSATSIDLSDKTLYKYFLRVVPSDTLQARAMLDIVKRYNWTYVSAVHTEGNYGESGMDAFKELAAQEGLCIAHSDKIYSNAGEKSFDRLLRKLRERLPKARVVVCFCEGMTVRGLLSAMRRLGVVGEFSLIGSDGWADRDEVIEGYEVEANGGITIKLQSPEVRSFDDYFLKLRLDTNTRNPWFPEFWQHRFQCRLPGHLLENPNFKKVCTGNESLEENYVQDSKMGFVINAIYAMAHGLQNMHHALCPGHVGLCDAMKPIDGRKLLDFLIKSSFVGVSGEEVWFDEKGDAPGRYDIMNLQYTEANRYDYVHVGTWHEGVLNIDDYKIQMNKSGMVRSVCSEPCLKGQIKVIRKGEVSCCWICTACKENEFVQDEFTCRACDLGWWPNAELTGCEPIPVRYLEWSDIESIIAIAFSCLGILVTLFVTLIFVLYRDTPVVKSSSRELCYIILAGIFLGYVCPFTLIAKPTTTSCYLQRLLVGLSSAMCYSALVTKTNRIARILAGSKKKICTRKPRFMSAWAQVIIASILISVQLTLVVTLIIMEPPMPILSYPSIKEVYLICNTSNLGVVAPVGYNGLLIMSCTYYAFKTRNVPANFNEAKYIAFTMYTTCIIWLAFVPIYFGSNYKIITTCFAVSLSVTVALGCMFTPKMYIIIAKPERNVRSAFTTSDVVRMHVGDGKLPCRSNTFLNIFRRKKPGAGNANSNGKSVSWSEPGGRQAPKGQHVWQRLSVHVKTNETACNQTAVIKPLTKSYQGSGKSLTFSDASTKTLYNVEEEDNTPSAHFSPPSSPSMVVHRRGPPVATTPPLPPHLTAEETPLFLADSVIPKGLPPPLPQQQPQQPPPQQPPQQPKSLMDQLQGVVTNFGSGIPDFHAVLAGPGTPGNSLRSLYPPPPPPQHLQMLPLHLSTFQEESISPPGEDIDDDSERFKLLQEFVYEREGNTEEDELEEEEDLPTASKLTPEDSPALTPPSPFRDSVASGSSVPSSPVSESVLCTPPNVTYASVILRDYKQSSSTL
For test [6], the target named is Metabotropic glutamate receptor 5 (Rattus norvegicus, UniProt P31424). Description: Metabotropic glutamate receptor 5 agonist activity as basal [3H]- IP formation in rat. In kind it is functional.
Test [7] deals with Metabotropic glutamate receptor 3 (Rattus norvegicus, UniProt P31422). Description: Metabotropic glutamate receptor 3 agonist activity against forskolin stimulated c-AMP formation in rat non neuronal cells. In kind it is functional, cell-based.
Chain of Metabotropic glutamate receptor 3 (P31422 whole entry): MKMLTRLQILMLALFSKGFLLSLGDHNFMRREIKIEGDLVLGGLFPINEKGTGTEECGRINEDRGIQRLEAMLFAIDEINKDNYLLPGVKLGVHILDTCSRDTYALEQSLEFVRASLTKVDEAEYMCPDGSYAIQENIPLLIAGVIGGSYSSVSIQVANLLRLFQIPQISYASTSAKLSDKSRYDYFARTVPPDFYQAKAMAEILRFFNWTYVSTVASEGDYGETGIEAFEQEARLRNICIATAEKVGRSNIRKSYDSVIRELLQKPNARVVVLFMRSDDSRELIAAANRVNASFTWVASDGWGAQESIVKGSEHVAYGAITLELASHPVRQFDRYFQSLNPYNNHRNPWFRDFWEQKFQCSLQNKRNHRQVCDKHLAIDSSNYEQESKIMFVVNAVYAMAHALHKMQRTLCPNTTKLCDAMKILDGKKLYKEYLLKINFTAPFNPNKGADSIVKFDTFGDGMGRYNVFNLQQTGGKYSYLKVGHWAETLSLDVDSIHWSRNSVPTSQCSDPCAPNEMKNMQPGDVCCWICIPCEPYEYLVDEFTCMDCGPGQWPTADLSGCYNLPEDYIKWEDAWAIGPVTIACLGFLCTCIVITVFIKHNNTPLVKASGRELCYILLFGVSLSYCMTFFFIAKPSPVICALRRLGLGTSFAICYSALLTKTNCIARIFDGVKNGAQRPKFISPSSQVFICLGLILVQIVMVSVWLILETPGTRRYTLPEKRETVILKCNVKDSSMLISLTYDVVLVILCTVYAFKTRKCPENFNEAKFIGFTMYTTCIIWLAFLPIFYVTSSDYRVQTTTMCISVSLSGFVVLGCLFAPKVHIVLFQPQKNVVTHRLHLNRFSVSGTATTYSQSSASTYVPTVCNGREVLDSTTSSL
In test [8] the target is T4, Metabotropic glutamate receptor 6 (Rattus norvegicus, UniProt P35349). Description: Metabotropic glutamate receptor 6 agonist activity to influence forskolin stimulated c-AMP formation in rat non neuronal cells. In kind it is functional, cell-based.
T4 sequence (P35349 whole entry): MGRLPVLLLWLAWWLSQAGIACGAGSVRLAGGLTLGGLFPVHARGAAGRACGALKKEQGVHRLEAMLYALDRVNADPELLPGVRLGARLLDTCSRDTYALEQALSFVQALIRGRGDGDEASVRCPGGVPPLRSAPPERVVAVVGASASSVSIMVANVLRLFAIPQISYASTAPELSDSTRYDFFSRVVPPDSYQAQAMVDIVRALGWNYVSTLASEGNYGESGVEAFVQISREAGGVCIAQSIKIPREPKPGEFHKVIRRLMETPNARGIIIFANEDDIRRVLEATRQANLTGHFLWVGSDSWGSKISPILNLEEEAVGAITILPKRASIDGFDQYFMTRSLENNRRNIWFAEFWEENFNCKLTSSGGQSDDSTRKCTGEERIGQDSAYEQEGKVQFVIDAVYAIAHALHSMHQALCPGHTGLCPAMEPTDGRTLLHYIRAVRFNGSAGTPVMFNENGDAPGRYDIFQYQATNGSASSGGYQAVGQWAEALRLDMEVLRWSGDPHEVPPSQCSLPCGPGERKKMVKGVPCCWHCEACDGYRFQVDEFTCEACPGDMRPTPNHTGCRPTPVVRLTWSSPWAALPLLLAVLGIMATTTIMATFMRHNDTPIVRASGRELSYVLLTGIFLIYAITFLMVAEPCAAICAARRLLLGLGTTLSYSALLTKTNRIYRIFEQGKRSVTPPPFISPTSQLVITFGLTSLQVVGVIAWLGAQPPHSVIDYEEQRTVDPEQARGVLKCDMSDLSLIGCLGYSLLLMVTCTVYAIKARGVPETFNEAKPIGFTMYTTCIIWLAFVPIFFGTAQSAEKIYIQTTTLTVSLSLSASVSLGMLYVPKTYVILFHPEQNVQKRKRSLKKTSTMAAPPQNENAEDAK
In test [9] the target is T4, Metabotropic glutamate receptor 6. Description: Metabotropic glutamate receptor 6 antagonist activity to influence forskolin stimulated c-AMP formation in rat non neuronal cells. In kind it is functional, cell-based.
The target in test [10] is T3, Metabotropic glutamate receptor 4. Description: Metabotropic glutamate receptor 4 antagonist activity to influence forskolin stimulated c-AMP formation in rat non neuronal cells. It counts as functional, cell-based.
For test [11], the target named is T2, Metabotropic glutamate receptor 7. In words: Metabotropic glutamate receptor 7 antagonist activity to influence forskolin stimulated c-AMP formation in rat non neuronal cells. It counts as functional, cell-based.
Test [12] deals with T1, Metabotropic glutamate receptor 8. Description: Metabotropic glutamate receptor 8 antagonist activity to influence forskolin stimulated c-AMP formation in rat non neuronal cells. It counts as functional, cell-based.

Where only a bound is given, the exact number is not on record here.

Chain of Metabotropic glutamate receptor 2 (P31421 whole entry): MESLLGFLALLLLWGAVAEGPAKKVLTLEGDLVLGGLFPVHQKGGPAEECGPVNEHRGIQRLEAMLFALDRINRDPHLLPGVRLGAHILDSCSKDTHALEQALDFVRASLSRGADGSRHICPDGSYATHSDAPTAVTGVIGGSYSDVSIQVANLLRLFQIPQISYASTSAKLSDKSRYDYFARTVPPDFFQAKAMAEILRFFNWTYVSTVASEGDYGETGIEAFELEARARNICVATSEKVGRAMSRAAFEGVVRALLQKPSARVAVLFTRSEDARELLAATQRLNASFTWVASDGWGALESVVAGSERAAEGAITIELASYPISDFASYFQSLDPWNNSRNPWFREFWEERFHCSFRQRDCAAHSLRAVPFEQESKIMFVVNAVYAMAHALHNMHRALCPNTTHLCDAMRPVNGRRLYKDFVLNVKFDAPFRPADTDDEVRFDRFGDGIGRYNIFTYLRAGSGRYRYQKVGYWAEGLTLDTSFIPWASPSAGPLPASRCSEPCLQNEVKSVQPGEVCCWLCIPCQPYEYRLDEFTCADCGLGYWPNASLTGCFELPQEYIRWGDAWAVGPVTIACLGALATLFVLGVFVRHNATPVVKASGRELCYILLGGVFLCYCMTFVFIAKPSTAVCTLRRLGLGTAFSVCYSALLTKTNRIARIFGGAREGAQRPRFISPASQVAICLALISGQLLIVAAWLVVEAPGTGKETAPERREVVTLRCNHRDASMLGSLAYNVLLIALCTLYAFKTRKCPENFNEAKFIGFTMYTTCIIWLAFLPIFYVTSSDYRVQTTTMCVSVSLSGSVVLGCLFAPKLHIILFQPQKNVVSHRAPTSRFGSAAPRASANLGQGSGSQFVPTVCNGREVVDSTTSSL

With `N[C@H](C(=O)O)c1ccc(C(=O)O)c(C(=O)O)c1`, the EC50 is 0.031 µM in [1]; more than 100 µM in [2]; more than 100 µM in test [3]; 8.8 µM in test [4]; 32 µM in test [5]; more than 100 µM in test [6]. Besides, the EC50 was more than 100 µM in [7] and 3.6 µM in test [8].
For the molecule `N[C@H](C(=O)O)[C@H]1[C@H](CC(=O)O)[C@@H]1C(=O)O`, the figures for the EC50 in test [3], in [5] and in [6] were 0.3 µM, more than 100 µM and more than 100 µM, respectively.
`N[C@H](C(=O)O)[C@H]1C[C@@H]1C(=O)O`: the EC50 in [1] was determined as 0.4 µM; in test [2] it was 47 µM; in [3] it was 0.3 µM; in [4] it was 4 µM; in test [5], 23 µM; in test [6], 17 µM. Also, the EC50 in [7] and in test [8] was 0.6 µM throughout.
For `N[C@H](C(=O)O)C1[C@@H](C(=O)O)[C@@H]1C(=O)O` (some centres undefined), the EC50 is 40 µM in test [9]; 23 µM in test [10]; more than 100 µM in test [5]; 389 µM in test [6]; 0.2 µM in [7]; 40 µM in [11]. Moreover, the midpoint of the response in test [12], the EC50, lay at 32 µM.
On to `C[C@H]1[C@H](C(=O)O)[C@H]1[C@H](N)C(=O)O`, for which the EC50 in test [1] is 1.32 µM; in test [2], more than 100 µM; in test [3], 0.008 µM; in test [4], more than 100 µM; in test [5], more than 100 µM; in test [6] it was more than 100 µM. For the same molecule, the EC50 came to 0.038 µM in test [7] and 1.2 µM in [8].
As for `N[C@@H](CCP(=O)(O)O)C(=O)O`, the EC50 in test [1] is 0.06 µM; in [2], 175 µM; in test [3] it was 448 µM; in test [4], 0.32 µM; in test [5], more than 100 µM; in test [6], more than 100 µM. Besides, the EC50 is more than 100 µM in test [7] and 0.055 µM in test [8].
Take `N[C@H](C(=O)O)[C@H]1[C@@H](CC(=O)O)[C@@H]1C(=O)O`: the EC50 was 0.1 µM in test [3], more than 100 µM in test [5] and more than 100 µM in test [6].
For `N[C@H](C(=O)O)[C@@H]1[C@@H](C(=O)O)C1(F)F`, in [3], the EC50 was 0.09 µM.
Consider `NC(C(=O)O)c1ccc(P(=O)(O)O)cc1` (racemic), for which the EC50 in test [1] was 0.21 µM; in [2], 185 µM; in test [3] it was more than 300 µM; in [4] it was 5.2 µM; in [5] it was more than 500 µM; in test [6], more than 500 µM. Besides, the figures for the EC50 in test [7] and in test [8] were more than 200 µM and 4.7 µM, respectively.

For orientation: EC50 means the concentration that produces a half-maximal response.
